Results published in US20160194358A1, “LINEAR PEPTIDE ANTIBIOTCS” (priority 2013, published 2016).
In brackets after ≈: the same amount, converted by molar mass. Where two headings read alike, the source gives them in different places. Where a SMILES comes first, the peptide text is derived from it. [ ]: non-standard residue; d: D form. The star is where a group is joined. boroAla((+)-pinanediol) = C[C@H](N*)B1O[C@@H]2C[C@@H]3C[C@@H](C3(C)C)[C@]2(C)O1; Benzoyl(4-(4-Cl-Ph)) = O=C(c1ccc(-c2ccc(Cl)cc2)cc1)*; Ethanesulfonyl(2-NHDecyl) = CCCCCCCCCCNCCS(=O)(=O)*; Propanoyl(3-decylamino) = CCCCCCCCCCNCCC(=O)*; X34 = CCCCc1ccc(-c2ccc(S(=O)(=O)*)cc2)cc1; X21 = O=S(=O)(c1ccc(-c2ccc(Cl)cc2)nc1)*; AlaCOCOOMe = COC(=O)C(=O)[C@H](C)N*; X29 = CCCCCCCCCCN(C)CCS(=O)(=O)*; X19 = CCCCCCCCCCN(C)CCC(=O)*; X22 = C[C@H](N*)C(=O)C(=O)O; Decanoyl = CCCCCCCCCC(=O)*; boroAla = C[C@H](N*)B(O)O; Octanoyl = CCCCCCCC(=O)*; Dab = NCC[C@H](N)C(=O)O; Dap = NC[C@H](N)C(=O)O

What was measured:
[1] = test system: Escherichia coli strain MC4100 IMP-4213, which harbors an LptD mutation; settings: E. coli MC4100 IMP-4213; 35° C., 22 hours
Procedure: (§1) In vitro antimicrobial activity of each compound was determined by measuring minimal inhibitor concentrations (MICs) using the broth micro-dilution technique as approved by the Clinical and Laboratory Standards Institute (CLSI). Antibacterial activity was measure against two strains of bacteria: 1) methicillin resistant Staphylococcus aureus (MRSA) strain USA300 (NRS384) and 2) Escherichia coli strain MC4100 IMP-4213, which harbors an LptD mutation. Bacterial inocula were prepared by scraping cells into 1 mL of testing media (cation adjusted Mueller Hinton Broth supplemented with 0.002% v/v Tween-80) and diluting to a final OD600nm of 0.01.
(§2) Test compounds were prepared in DMSO at a concentration of 10 mg/ml. These compound stocks were diluted into testing media at a concentration of 64 μg/ml and 9 serial 1:2 dilutions were made in the same media, in 96-well U bottom microtiter dishes. Bacterial inocula were added to the two fold serial dilutions of test compounds to a final density of OD OD600nm of 0.0005 and incubated stationarily at 35° C. for 22 hours, after which the plates were examined visually.

[2] = test system: methicillin resistant Staphylococcus aureus (MRSA) strain USA300 (NRS384)
Procedure: as §1, §2

[3] = MRSA USA300 (NRS384), 35° C., 22 hours

SMILES	MIC (μg/mL) E. coli [1] [µg/mL]	MIC (μg/mL) S. aureus [2, 3] [µg/mL]	MIC (μg/mL) S. aureus ([2]; USA300, 22 h) [µg/mL]
C[C@H](NC(=O)[C@H](CCCCN)NC(=O)[C@H](C)NC(=O)[C@@H](NC(=O)[C@H](CCN)NS(=O)(=O)c1ccc(-c2ccc(Cl)cc2)nc1)[C@@H](C)O)B(O)O [Compound 235] (X21-[Dab]TAK-boroAla)	32 (≈ 43.2 µM)	16 (≈ 21.6 µM)	
CCCCc1ccc(-c2ccc(S(=O)(=O)N[C@@H](CCCCN)C(=O)N[C@H](C(=O)N[C@@H](C)C(=O)N[C@@H](CCCCN)C(=O)N[C@@H](C)B3O[C@@H]4C[C@@H]5C[C@@H](C5(C)C)[C@]4(C)O3)[C@@H](C)O)cc2)cc1 [Compound 236] (X34-KTAK-{boroAla((+)-pinanediol)})	16 (≈ 17.3 µM)	0.5 (≈ 0.541 µM)	
CCCCCCCCCCNCCS(=O)(=O)N[C@@H](CCCCN)C(=O)N[C@H](C(=O)N[C@@H](C)C(=O)N[C@@H](CCCCN)C(=O)N[C@@H](C)B1O[C@@H]2C[C@@H]3C[C@@H](C3(C)C)[C@]2(C)O1)[C@@H](C)O [Compound 237] ({Ethanesulfonyl(2-NHDecyl)}-KTAK-{boroAla((+)-pinanediol)})	32 (≈ 35.6 µM)	0.35 (≈ 0.389 µM)	
CCCCCCCCCCNCCS(=O)(=O)N[C@@H](CCCCN)C(=O)N[C@H](C(=O)N[C@@H](C)C(=O)N[C@@H](CCCCN)C(=O)N[C@@H](C)B(O)O)[C@@H](C)O [Compound 238] ({Ethanesulfonyl(2-NHDecyl)}-KTAK-boroAla)	32 (≈ 41.8 µM)		0.18 (≈ 0.235 µM)
CCCCCCCCCCNCCS(=O)(=O)N[C@@H](CCN)C(=O)N[C@H](C(=O)N[C@@H](C)C(=O)N[C@@H](CCCCN)C(=O)N[C@@H](C)B1O[C@@H]2C[C@@H]3C[C@@H](C3(C)C)[C@]2(C)O1)[C@@H](C)O [Compound 239] ({Ethanesulfonyl(2-NHDecyl)}-[Dab]TAK-{boroAla((+)-pinanediol)})	4 (≈ 4.59 µM)	0.25 (≈ 0.287 µM)	
CCCCCCCCCCN(C)CCC(=O)N[C@@H](CCCCN)C(=O)N[C@H](C(=O)N[C@@H](C)C(=O)N[C@@H](CCCCN)C(=O)N[C@@H](C)B1O[C@@H]2C[C@@H]3C[C@@H](C3(C)C)[C@]2(C)O1)[C@@H](C)O [Compound 240] (X19-KTAK-{boroAla((+)-pinanediol)})	32 (≈ 36.5 µM)	1.4 (≈ 1.6 µM)	
CCCCCCCCCCNC[C@@H](N)C(=O)N[C@H](C(=O)N[C@@H](C)C(=O)N[C@@H](CCCCN)C(=O)N[C@@H](C)B1O[C@@H]2C[C@@H]3C[C@@H](C3(C)C)[C@]2(C)O1)[C@@H](C)O [Compound 241]	32 (≈ 42.7 µM)	1 (≈ 1.33 µM)	
CCCCCCCCCCNCCN[C@@H](CO)C(=O)N[C@H](C(=O)N[C@@H](C)C(=O)N[C@@H](CCCCN)C(=O)N[C@@H](C)B1O[C@@H]2C[C@@H]3C[C@@H](C3(C)C)[C@]2(C)O1)[C@@H](C)O [Compound 242]	64 (≈ 80.6 µM)	4 (≈ 5.04 µM)	
CCCCCCCCCCNCCN[C@@H](CC(N)=O)C(=O)N[C@H](C(=O)N[C@@H](C)C(=O)N[C@@H](CCCCN)C(=O)N[C@@H](C)B(O)O)[C@@H](C)O [Compound 243]	>64		1.4 (≈ 2.04 µM)
CCCCCCCCCCNCCNCC(=O)N[C@H](C(=O)N[C@@H](C)C(=O)N[C@@H](CCCCN)C(=O)N[C@@H](C)B1O[C@@H]2C[C@@H]3C[C@@H](C3(C)C)[C@]2(C)O1)[C@@H](C)O [Compound 244]	64 (≈ 83.8 µM)	0.87 (≈ 1.14 µM)	
CCCCCCCCCCN(C)CCS(=O)(=O)N[C@@H](CCCCN)C(=O)N[C@H](C(=O)N[C@@H](C)C(=O)N[C@@H](CCCCN)C(=O)N[C@@H](C)B1O[C@@H]2C[C@@H]3C[C@@H](C3(C)C)[C@]2(C)O1)[C@@H](C)O [Compound 245] (X29-KTAK-{boroAla((+)-pinanediol)})	32 (≈ 35 µM)	0.35 (≈ 0.383 µM)	
COC(=O)C(=O)[C@H](C)NC(=O)[C@H](CCCCN)NC(=O)[C@H](C)NC(=O)[C@@H](NC(=O)[C@H](CCN)NC(=O)c1ccc(-c2ccc(Cl)cc2)cc1)[C@@H](C)O [Compound 246] ({Benzoyl(4-(4-Cl-Ph))}-[Dab]TAK-AlaCOCOOMe)	>64	2.3 (≈ 3.08 µM)	
C[C@H](NC(=O)[C@@H](NC(=O)[C@H](CCN)NC(=O)c1ccc(-c2ccc(Cl)cc2)cc1)[C@@H](C)O)C(=O)N[C@@H](CCCCN)C(=O)N[C@@H](C)C(=O)C(=O)O [Compound 247] ({Benzoyl(4-(4-Cl-Ph))}-[Dab]TAK-X22)	>64	3.2 (≈ 4.37 µM)	
CCCCCCCCCCNCCC(=O)N[C@@H](CCCCN)C(=O)N[C@H](C(=O)N[C@@H](C)C(=O)N[C@@H](CCCCN)C(=O)N[C@@H](C)C(=O)C(=O)OC)[C@@H](C)O [Compound 248] ({Propanoyl(3-decylamino)}-KTAK-AlaCOCOOMe)	>64		1 (≈ 1.3 µM)
CCCCCCCCCCNCCC(=O)N[C@@H](CCCCN)C(=O)N[C@H](C(=O)N[C@@H](C)C(=O)N[C@@H](CCCCN)C(=O)N[C@@H](C)C(=O)C(=O)O)[C@@H](C)O [Compound 249] ({Propanoyl(3-decylamino)}-KTAK-X22)	>64		0.71 (≈ 0.938 µM)
CCCCCCCCCCNCCS(=O)(=O)N[C@@H](CCCCN)C(=O)N[C@H](C(=O)N[C@@H](C)C(=O)N[C@@H](CCCCN)C(=O)N[C@@H](C)C(=O)C(=O)OC)[C@@H](C)O [Compound 250] ({Ethanesulfonyl(2-NHDecyl)}-KTAK-AlaCOCOOMe)	>64		0.5 (≈ 0.62 µM)
CCCCCCCCCCNCCS(=O)(=O)N[C@@H](CCCCN)C(=O)N[C@H](C(=O)N[C@@H](C)C(=O)N[C@@H](CCCCN)C(=O)N[C@@H](C)C(=O)C(=O)O)[C@@H](C)O [Compound 251] ({Ethanesulfonyl(2-NHDecyl)}-KTAK-X22)	>64		0.5 (≈ 0.63 µM)
CCCCCCCCCCNCCS(=O)(=O)N[C@@H](CCN)C(=O)N[C@H](C(=O)N[C@@H](C)C(=O)N[C@@H](CCCCN)C(=O)N[C@@H](C)C(=O)C(=O)OC)[C@@H](C)O [Compound 252] ({Ethanesulfonyl(2-NHDecyl)}-[Dab]TAK-AlaCOCOOMe)	64 (≈ 82.2 µM)		1 (≈ 1.28 µM)
CCCCCCCCCCNCCS(=O)(=O)N[C@@H](CCN)C(=O)N[C@H](C(=O)N[C@@H](C)C(=O)N[C@@H](CCCCN)C(=O)N[C@@H](C)C(=O)C(=O)O)[C@@H](C)O [Compound 253] ({Ethanesulfonyl(2-NHDecyl)}-[Dab]TAK-X22)	64 (≈ 83.7 µM)		1 (≈ 1.31 µM)
CCCCCCCCCCNCCC(=O)N[C@@H](CCCCN)C(=O)N[C@H](C(=O)N[C@@H](C)C(=O)N[C@@H](CCN)C(=O)N[C@@H](C)C(=O)C(=O)O)[C@@H](C)O [Compound 255] ({Propanoyl(3-decylamino)}-KTA[Dab]-X22)	>64		11 (≈ 15.1 µM)
CCCCCCCCCCNCCC(=O)N[C@@H](CCCCN)C(=O)N[C@H](C(=O)N[C@@H](C)C(=O)N[C@@H](CN)C(=O)N[C@@H](C)C(=O)C(=O)OC)[C@@H](C)O [Compound 256] ({Propanoyl(3-decylamino)}-KTA[Dap]-AlaCOCOOMe)	>64		10 (≈ 13.7 µM)
CCCCCCCCCCNCCC(=O)N[C@@H](CCCCN)C(=O)N[C@H](C(=O)N[C@@H](C)C(=O)N[C@@H](CN)C(=O)N[C@@H](C)C(=O)C(=O)O)[C@@H](C)O [Compound 257] ({Propanoyl(3-decylamino)}-KTA[Dap]-X22)	>64		11 (≈ 15.4 µM)
CCCCCCCCCC(=O)NCC(=O)N[C@H](C(=O)N[C@@H](C)C(=O)N[C@@H](CCCCN)C(=O)N[C@@H](C)B1O[C@@H]2C[C@@H]3C[C@@H](C3(C)C)[C@]2(C)O1)[C@@H](C)O [Compound 258] (Decanoyl-GTAK-{boroAla((+)-pinanediol)})	>64	8 (≈ 10.9 µM)	
CCCCCCCCCC(=O)NCC(=O)N[C@@H](CCCCN)C(=O)N[C@H](C(=O)N[C@@H](C)C(=O)N[C@@H](CCCCN)C(=O)N[C@@H](C)B1O[C@@H]2C[C@@H]3C[C@@H](C3(C)C)[C@]2(C)O1)[C@@H](C)O [Compound 259] (Decanoyl-GKTAK-{boroAla((+)-pinanediol)})	64 (≈ 74.2 µM)	2.4 (≈ 2.78 µM)	
CCCCCCCC(=O)N[C@@H](CN)C(=O)N[C@H](C(=O)N[C@@H](C)C(=O)N[C@@H](CCCCN)C(=O)N[C@@H](C)B1O[C@@H]2C[C@@H]3C[C@@H](C3(C)C)[C@]2(C)O1)[C@@H](C)O [Compound 260] (Octanoyl-[Dap]TAK-{boroAla((+)-pinanediol)})	32 (≈ 43.5 µM)	23 (≈ 31.3 µM)	
